How the values were obtained:
[1] = tested on: YAP-TEAD transcriptional activity; assay: HOP-flash TEAD binding site luciferase reporter; type: cell-based, human; details: LN229 or GBM39 cells, 18 h
Description: Levels of total YAP were determined via ELISA. […] Immunoprecipitates were immunoblotted for the indicated proteins. […] Cells were treated with the indicated concentrations of inhibitor for 18 h and mRNA extracted for real time RT-PCR analyses. Measurements were performed in quadruplicate and means and+S.D. are shown. […] Cells were treated with (+) or without (−) NSC682769 (100 nM, 18 h) and harvested and separated into cytoplasmic and nuclear cellular fractions. Cytoplasmic versus nuclear material was subsequently immunoblotted for the indicated proteins. […] Values in top right corner of panels correspond to the percentage of nuclear localized YAP. Cells were grown on coverslips and treated with NSC682769. Cells were permeabilized and stained using primary antibody to YAP1 and FITC-conjugated secondary. Nuclei were stained with DAPI. Scale bar, 20 μm.
Surface plasmon resonance (SPR), ELISA, YAP-TEAD reporter activity, cellular fractionation, and immunofluorescence analyses. SPR experiments were carried out on a Nicoya OpenSPR™ instrument using immobilized YAP on a carboxyl-coated sensor. […] YAP-TEAD reporter activity was determined as previously described (Kim N G, Gumbiner B M (2015) J Cell Biol 210: 503-515). […] Luciferase activity was measured via a luciferase assay system (Promega). […] Cell lysis was monitored by trypan blue staining. […]

LN229 and GBM39 cells = assay: Matrigel invasion assay; type: cell-based, human; details: Matrigel-coated membranes
Excerpt: Cells were layered in soft agar to evaluate anchorage-independent growth in the presence of the indicated concentrations of inhibitor and colonies counted following 14 days of growth. Representative crystal violet stained images are shown below. Data represent mean+S.D. of three independent experiments. […] Cells were placed in Boyden chambers and allowed to migrate towards BSA (white bars), vitronectin (light yellow bars), or fibronectin (dark yellow bars) (*, P<0.05; n=3). […] Representative crystal violet stained images are shown (200×). Data represent mean+S.D. of three independent experiments. […] Graphical data shown below represent mean+S.D. (late apoptosis; annexin V-positive, PI-positive) of three independent experiments.
Cell proliferation, clonogenic, migration, invasion and apoptosis assays. Cell proliferation was determined via Cell Titer-Glo® luminescent cell assays (Promega). Clonogenic assays were done by plating a total of 1,000 cells per well in 24-well plates in a total volume of 400 μL using a two-layered soft agar system as previously described (Masri J, et al. (2007) Cancer Res 67: 11712-11720). Cell migration assays were conducted using precoated modified Boyden chambers as previously described (Benavides-Serrato A, et al. (2017) PLoS One 12: e0176599). […]

In the case of COc1ccc(-c2cc(-c3ccccc3)nc3c2CC(=O)Nc2ccccc2-3)cc1OC [NSC682769], the “YAP-TEAD transcriptional activity (luciferase)” value [1] is reported as “markedly reduced” and the Cell invasiveness (LN229 and GBM39 cells) is reported as “reduced the number of cells able to traverse Matrigel-coated membranes”.

— patent US20240108634A1, “COMPOSITIONS AND METHODS FOR INHIBITING YAP” (The United States Government as represented by the …, priority 2021, published 2024)
